Assay results taken from ChEMBL document CHEMBL4627395, “Cytotoxic Heptaketides from the Endolichenic Fungus Ulospora bilgramii” (J Nat Prod, 2020).
The source made the active and inactive calls. The rule behind the calls is not given here.

Legend:
A549 [1] = assay: Induction of ROS generation in human A549 cells assessed as increase in fluorescence intensity at 5 uM incubated for 24 hrs by DCFH-DA staining-based flow cytometric analysis relative to control; assay type: functional
A549 [2] = assay: Induction of ROS generation in human A549 cells incubated for 24 hrs by DCFH-DA staining-based flow cytometric analysis relative to control; assay type: functional, cell-based
A549 [3] = assay: Induction of cell cycle arrest in human A549 cells assessed as accumulation at G0/G1 phase at 13.6 uM incubated for 24 hrs by flow cytometry (reference value: 55.79%); assay type: functional
A549 [4] = assay: Induction of cell cycle arrest in human A549 cells assessed as accumulation at S phase at 1.25 uM incubated for 24 hrs by flow cytometry (reference value: 33.65%); assay type: functional
A549 [5] = assay: Induction of apoptosis in human A549 cells assessed as late apoptotic cells at 2.5 uM after 24 hrs by Annexin-V-FITC/propidium iodide staining based flow cytometric method (reference value: 1.40%); assay type: functional
A549 [6] = assay: Induction of apoptosis in human A549 cells assessed as late apoptotic cells at 1.25 uM after 24 hrs by Annexin-V-FITC/propidium iodide staining based flow cytometric method (reference value: 1.40%); assay type: functional
A549 [7] = assay: Induction of DNA damage in human A549 cells assessed as gammaH2AX accumulation incubated for 24 hrs by DAPI staining based Immunofluorescence method; assay type: functional, cell-based
KB = assay: Cytotoxicity against human KB cells incubated for 48 hrs by MTT assay; assay type: functional, cell-based
A549 [8] = assay: induction of morphological changes in human A549 cells assessed as cell shrinkage at 1.25 to 5 uM incubated for 24 hrs by DAPI-staining based microscopic method; assay type: functional
A549 [9] = assay: Induction of cell cycle arrest in human A549 cells assessed as accumulation at G2/M phase at 13.6 uM incubated for 24 hrs by flow cytometry (reference value: 10.38%); assay type: functional
A549 [10] = assay: Cytotoxicity against human A549 cells incubated for 48 hrs by MTT assay; assay type: functional, cell-based; details: A549, 48 h
A549 [11] = assay: Induction of apoptosis in human A549 cells assessed as late apoptotic cells at 5 uM after 24 hrs by Annexin-V-FITC/propidium iodide staining based flow cytometric method (reference value: 1.40%); assay type: functional
A549 [12] = assay: Induction of apoptosis in human A549 cells after 24 hrs by Annexin-V-FITC/propidium iodide staining based flow cytometric method; assay type: functional, cell-based
A549 [13] = assay: Induction of cell cycle arrest in human A549 cells assessed as accumulation at G2/M phase at 1.25 uM incubated for 24 hrs by flow cytometry (reference value: 10.38%); assay type: functional
A549 [14] = assay: Induction of cell cycle arrest in human A549 cells assessed as accumulation at G2/M phase at 2.5 uM incubated for 24 hrs by flow cytometry (reference value: 10.38%); assay type: functional
A549 [15] = assay: Induction of cell cycle arrest in human A549 cells assessed as accumulation at G0/G1 phase at 2.5 uM incubated for 24 hrs by flow cytometry (reference value: 55.79%); assay type: functional
A549 [16] = assay: Induction of cell cycle arrest in human A549 cells assessed as accumulation at S phase at 13.6 uM incubated for 24 hrs by flow cytometry (reference value: 33.65%); assay type: functional
A549 [17] = assay: Induction of cell cycle arrest in human A549 cells assessed as accumulation at G0/G1 phase at 5 uM incubated for 24 hrs by flow cytometry (reference value: 55.79%); assay type: functional
A549 [18] = assay: Induction of apoptosis in human A549 cells assessed as early apoptotic cells at 5 uM after 24 hrs by Annexin-V-FITC/propidium iodide staining based flow cytometric method (reference value: 0.56%); assay type: functional
A549 [19] = assay: Induction of apoptosis in human A549 cells assessed as early apoptotic cells at 2.5 uM after 24 hrs by Annexin-V-FITC/propidium iodide staining based flow cytometric method (reference value: 0.56%); assay type: functional
MCF7 = assay: Cytotoxicity against human MCF7 cells incubated for 48 hrs by MTT assay; assay type: functional, cell-based; details: MCF7, 48 h
A549 [20] = assay: Induction of cell cycle arrest in human A549 cells assessed as accumulation at G2/M phase at 5 uM incubated for 24 hrs by flow cytometry (reference value: 10.38%); assay type: functional
A549 [21] = assay: Induction of apoptosis in human A549 cells assessed as necrotic cells at 13.6 uM after 24 hrs by Annexin-V-FITC/propidium iodide staining based flow cytometric method (reference value: 1.12%); assay type: functional
A549 [22] = assay: Induction of apoptosis in human A549 cells assessed as early apoptotic cells at 1.25 uM after 24 hrs by Annexin-V-FITC/propidium iodide staining based flow cytometric method (reference value: 0.56%); assay type: functional
A549 [23] = assay: Induction of cell cycle arrest in human A549 cells assessed as accumulation at G0/G1 phase incubated for 24 hrs by flow cytometry; assay type: functional, cell-based
A549 [24] = assay: Induction of cell cycle arrest in human A549 cells assessed as accumulation at S phase at 2.5 uM incubated for 24 hrs by flow cytometry (reference value: 33.65%); assay type: functional
A549 [25] = assay: Induction of apoptosis in human A549 cells assessed as necrotic cells at 2.5 uM after 24 hrs by Annexin-V-FITC/propidium iodide staining based flow cytometric method (reference value: 1.12%); assay type: functional
A549 [26] = assay: Induction of cell cycle arrest in human A549 cells assessed as accumulation at S phase at 5 uM incubated for 24 hrs by flow cytometry (reference value: 33.65%); assay type: functional
A549 [27] = assay: induction of morphological changes in human A549 cells assessed as appearance of apoptotic bodies at 1.25 to 5 uM incubated for 24 hrs by DAPI-staining based microscopic method; assay type: functional, cell-based
A549 [28] = assay: Induction of apoptosis in human A549 cells assessed as early apoptotic cells at 13.6 uM after 24 hrs by Annexin-V-FITC/propidium iodide staining based flow cytometric method (reference value: 0.56%); assay type: functional
[29] = biological target: DNA topoisomerase 2-alpha (Homo sapiens) (UniProt P11388); assay: Inhibition of human topoisomerase-2alpha expressed in baculovirus infected insect cells assessed as reduction in pBR322 DNA relaxation measured after 30 mins by ethidium bromide staining based agarose gel electrophoresis method relative to control
Chain of DNA topoisomerase 2-alpha (Homo sapiens) (P11388 whole entry): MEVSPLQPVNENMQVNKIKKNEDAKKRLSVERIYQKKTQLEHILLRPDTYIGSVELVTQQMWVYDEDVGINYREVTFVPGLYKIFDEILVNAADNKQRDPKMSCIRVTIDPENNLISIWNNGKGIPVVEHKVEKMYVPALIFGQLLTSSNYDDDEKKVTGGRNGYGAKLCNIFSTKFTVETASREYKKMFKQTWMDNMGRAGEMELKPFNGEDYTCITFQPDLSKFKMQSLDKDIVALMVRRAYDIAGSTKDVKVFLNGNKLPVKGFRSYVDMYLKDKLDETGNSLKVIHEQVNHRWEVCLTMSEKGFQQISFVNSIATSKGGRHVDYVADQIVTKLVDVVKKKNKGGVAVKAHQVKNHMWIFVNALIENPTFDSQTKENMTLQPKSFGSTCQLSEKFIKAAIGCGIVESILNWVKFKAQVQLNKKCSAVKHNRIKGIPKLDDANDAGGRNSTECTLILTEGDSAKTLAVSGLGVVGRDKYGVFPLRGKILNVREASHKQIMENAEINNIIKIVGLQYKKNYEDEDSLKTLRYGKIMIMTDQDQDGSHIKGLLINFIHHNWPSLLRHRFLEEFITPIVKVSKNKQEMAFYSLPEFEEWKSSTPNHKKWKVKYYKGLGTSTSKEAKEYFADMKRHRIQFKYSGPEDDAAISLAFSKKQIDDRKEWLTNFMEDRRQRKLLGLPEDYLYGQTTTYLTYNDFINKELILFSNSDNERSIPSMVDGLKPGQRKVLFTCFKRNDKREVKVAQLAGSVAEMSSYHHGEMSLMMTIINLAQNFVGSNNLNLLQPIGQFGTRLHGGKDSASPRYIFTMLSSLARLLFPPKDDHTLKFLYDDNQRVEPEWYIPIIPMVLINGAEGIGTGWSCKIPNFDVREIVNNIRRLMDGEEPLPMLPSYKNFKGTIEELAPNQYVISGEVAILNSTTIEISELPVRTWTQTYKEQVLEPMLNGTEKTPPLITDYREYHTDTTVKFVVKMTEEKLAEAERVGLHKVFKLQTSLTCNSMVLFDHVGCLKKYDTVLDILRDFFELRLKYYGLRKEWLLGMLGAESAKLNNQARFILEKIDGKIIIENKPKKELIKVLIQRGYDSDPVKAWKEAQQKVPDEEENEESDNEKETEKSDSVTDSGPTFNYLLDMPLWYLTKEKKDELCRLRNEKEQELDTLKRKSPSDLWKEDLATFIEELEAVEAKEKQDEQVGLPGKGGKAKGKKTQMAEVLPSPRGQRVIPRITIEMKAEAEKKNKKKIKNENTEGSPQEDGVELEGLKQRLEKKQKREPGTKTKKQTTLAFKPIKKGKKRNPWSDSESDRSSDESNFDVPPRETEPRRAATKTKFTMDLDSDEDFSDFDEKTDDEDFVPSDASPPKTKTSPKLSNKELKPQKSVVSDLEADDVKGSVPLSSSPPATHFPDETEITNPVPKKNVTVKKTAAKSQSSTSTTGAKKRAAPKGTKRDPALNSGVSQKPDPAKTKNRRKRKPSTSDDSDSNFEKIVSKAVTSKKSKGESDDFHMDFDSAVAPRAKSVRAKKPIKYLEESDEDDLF

A549 [30] = assay: Induction of apoptosis in human A549 cells assessed as necrotic cells at 5 uM after 24 hrs by Annexin-V-FITC/propidium iodide staining based flow cytometric method (reference value: 1.12%); assay type: functional
A549 [31] = assay: Induction of apoptosis in human A549 cells assessed as late apoptotic cells at 13.6 uM after 24 hrs by Annexin-V-FITC/propidium iodide staining based flow cytometric method (reference value: 1.40%); assay type: functional
A549 [32] = assay: Induction of apoptosis in human A549 cells assessed as necrotic cells at 1.25 uM after 24 hrs by Annexin-V-FITC/propidium iodide staining based flow cytometric method (reference value: 1.12%); assay type: functional
A549 [33] = assay: Induction of cell cycle arrest in human A549 cells assessed as accumulation at G0/G1 phase at 1.25 uM incubated for 24 hrs by flow cytometry (reference value: 55.79%); assay type: functional

`COc1cc(O)c2c(c1)C(=O)C1=C(C2=O)[C@H](OC[C@@H]2C(=O)CC[C@H]2C)OC(C)=C1` was tested, and the “fold change (FC)” value (A549 [1]) was 5, the Activity (A549 [2]) was “Dose-dependent effect” and the Activity (A549 [3]) was 30.93%. The Activity (A549 [4]) was 33.31%, the Activity (A549 [5]) was 2.69% and the Activity (A549 [6]) was 1.14%. The Activity (A549 [7]) was “Dose-dependent effect”, the IC50 (KB) was 3000 nM and the Activity (A549 [8]) was “Active”. It also gave an Activity (A549 [9]) of 44.81%, an IC50 (A549 [10]) of 1300 nM and an Activity (A549 [11]) of 10.75%. The Activity (A549 [12]) was “Dose-dependent effect”, the Activity (A549 [13]) was 7.18% and the Activity (A549 [14]) was 3.56%. The Activity (A549 [15]) was 66.37%, the Activity (A549 [16]) was 24.26% and the Activity (A549 [17]) was 69.15%. It also gave an Activity (A549 [18]) of 1.8%, an Activity (A549 [19]) of 0.87% and an IC50 (MCF7) of 1300 nM. For the same compound, the Activity (A549 [20]) was 1.11%, the Activity (A549 [21]) was 2.15% and the Activity (A549 [22]) was 0.98%. For the same compound, the Activity (A549 [23]) was “Dose-dependent effect”, the Activity (A549 [24]) was 30.07% and the Activity (A549 [25]) was 1.3%. For the same compound, the Activity (A549 [26]) was 29.74%, the Activity (A549 [27]) was “Active” and the Activity (A549 [28]) was 6.79%. For the same compound, the inhibition [29] was “Active”, the Activity (A549 [30]) was 7.75% and the Activity (A549 [31]) was 5.02%. For the same compound, the Activity (A549 [32]) was 0.73% and the Activity (A549 [33]) was 59.51%.
